Each compound was assayed against PAFR (Homo sapiens, UniProt P25105) (assay: PAF Binding Assay (PAFR binding)).
Sequence of PAFR (P25105 whole entry): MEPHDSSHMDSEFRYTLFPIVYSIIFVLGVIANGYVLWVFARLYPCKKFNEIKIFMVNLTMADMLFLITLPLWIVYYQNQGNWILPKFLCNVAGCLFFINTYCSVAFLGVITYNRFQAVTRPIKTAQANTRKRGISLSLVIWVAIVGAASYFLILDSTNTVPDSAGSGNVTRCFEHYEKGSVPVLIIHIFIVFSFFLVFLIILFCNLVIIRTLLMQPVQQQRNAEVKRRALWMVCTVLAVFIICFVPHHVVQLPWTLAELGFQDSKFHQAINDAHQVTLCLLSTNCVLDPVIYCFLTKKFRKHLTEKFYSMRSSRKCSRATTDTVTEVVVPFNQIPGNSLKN

Row | Compound | IC50 [nM]
1 | Cc1nncn1[C@@H]1CCC[C@H](NS(=O)(=O)c2ccc(-c3noc(C4CCCC4)n3)cc2OC(F)(F)F)C1 [Compound 2Bbh, 4-(5-cyclopentyl-1,2,4-oxadiazol-3-yl)-N-[(1S,3R)-3-(3-methyl-4H-1,2,4-triazol-4-yl)cyclohexyl]-2-(trifluoromethoxy)benzenesulfonamide] | 3.8
2 | CCc1cc(-c2cncs2)ccc1S(=O)(=O)N[C@H]1CCC[C@@H](n2cnnc2)C1 [Compound 2Aax, 2-ethyl-4-(1,3-thiazol-5-yl)-N-[(1S,3R)-3-(4H-1,2,4-triazol-4-yl)cyclohexyl]benzenesulfonamide] | 203
3 | O=S(=O)(N[C@H]1CCC[C@@H](n2cnnc2)C1)c1cc(-c2ccccc2F)cc(C(F)(F)F)c1 [Compound 3At, 2′-fluoro-N-[(1S,3R)-3-(4H-1,2,4-triazol-4-yl)cyclohexyl]-5-(trifluoromethyl)biphenyl-3-sulfonamide] | 5.4
4 | 3-isoxazol-5-yl-N-[(1R,5S)-3,3-difluoro-5-(3-methyl-4H-1,2,4-triazol-4-yl)cyclohexyl]-5-(trifluoromethyl)benzenesulfonamide [Compound 9Ad] | 34
5 | CCc1cc(-c2nccs2)ccc1S(=O)(=O)N[C@H]1CCC[C@@H](n2cnnc2)C1 [Compound 2Aaw, 2-ethyl-4-(1,3-thiazol-2-yl)-N-[(1S,3R)-3-(4H-1,2,4-triazol-4-yl)cyclohexyl]benzenesulfonamide] | 45
6 | Cc1nncn1[C@@H]1CCC[C@H](NS(=O)(=O)c2ccc(-c3ccc(OCC(F)(F)F)nc3)cc2OC(F)(F)F)C1 [Compound 2Bbe, N-[(1S,3R)-3-(3-methyl-4H-1,2,4-triazol-4-yl)cyclohexyl]-4-[6-(2,2,2-trifluoroethoxy)pyridin-3-yl]-2-(trifluoromethoxy)benzenesulfonamide] | 2
7 | O=S(=O)(N[C@H]1CCC[C@@H](n2cnnc2)C1)c1cc(-c2ccc3ncccc3c2)cc(C(F)(F)F)c1 [Compound 3Ap, 3-quinolin-6-yl-N-[(1S,3R)-3-(4H-1,2,4-triazol-4-yl)cyclohexyl]-5-(trifluoromethyl)benzenesulfonamide] | 3.3
8 | CCc1cc(OCCCC(F)(F)F)ccc1S(=O)(=O)N[C@H]1CCC[C@@H](n2cnnc2C)C1 [Compound 2Abj, 2-ethyl-N-[(1S,3R)-3-(3-methyl-4H-1,2,4-triazol-4-yl)cyclohexyl]-4-(4,4,4-trifluorobutoxy)benzenesulfonamide] | 2.7
9 | C=C(F)F.CCC(F)(F)c1nc(-c2ccc(S(=O)(=O)N[C@H]3CCC[C@@H](n4cnnc4)C3)c(C3CC3)c2)no1 [2 Kd, 2-cyclopropyl-4-[5-(1,1-difluoropropyl)-1,2,4-oxadiazol-3-yl]-N-[(1S,3R)-3-(4H-1,2,4-triazol-4-yl)cyclohexyl]benzenesulfonamide-1,1-difluoroethylene (1:1)] | 8.9
10 | CCc1cc(-c2cccc3cccnc23)cc(S(=O)(=O)N[C@@H]2C[C@H](n3cnnc3C)CC(F)(F)C2)c1 [Compound 3Da, N-[(1R,5S)-3,3-difluoro-5-(3-methyl-4H-1,2,4-triazol-4-yl)cyclohexyl]-3-ethyl-5-quinolin-8-ylbenzenesulfonamide] | 1.8
11 | Cc1nncn1[C@@H]1CCC[C@H](NS(=O)(=O)c2ccc(-c3ccc(OCC(F)(F)F)nc3)c(F)c2)C1 [Compound 2Ff, 3-fluoro-N-[(1S,3R)-3-(3-methyl-4H-1,2,4-triazol-4-yl)cyclohexyl]-4-[6-(2,2,2-trifluoroethoxy)pyridin-3-yl]benzenesulfonamide] | 1
12 | Cc1nncn1[C@@H]1CCC[C@H](NS(=O)(=O)c2ccc(-c3noc(C4CC4)n3)cc2)C1 [Compound 2Nl, 4-(5-cyclopropyl-1,2,4-oxadiazol-3-yl)-N-[(1S,3R)-3-(3-methyl-4H-1,2,4-triazol-4-yl)cyclohexyl]benzenesulfonamide] | 9.6
13 | CCCCOc1ccc(S(=O)(=O)N[C@H]2CCC[C@@H](n3cnnc3C)C2)cc1F [Compound 2Fj, 4-butoxy-3-fluoro-N-[(1S,3R)-3-(3-methyl-4H-1,2,4-triazol-4-yl)cyclohexyl]benzenesulfonamide] | 1.9
14 | O=S(=O)(N[C@H]1CCC[C@@H](n2cnnc2)C1)c1cc(-c2cc3ccccc3o2)cc(C(F)(F)F)c1 [Compound 3Aae, 3-(1-benzofuran-2-yl)-N-[(1S,3R)-3-(4H-1,2,4-triazol-4-yl)cyclohexyl]-5-(trifluoromethyl)benzenesulfonamide] | 1.8
15 | CCc1cc(-c2ccc(OCC(F)(F)F)nc2)ccc1S(=O)(=O)N[C@@H]1C[C@H](n2cnnc2C)CC(F)(F)C1 [Compound 2Cbe, N-[(1R,5S)-3,3-difluoro-5-(3-methyl-4H-1,2,4-triazol-4-yl)cyclohexyl]-2-ethyl-4-[6-(2,2,2-trifluoroethoxy)pyridin-3-yl]benzenesulfonamide] | 0.2
16 | O=S(=O)(N[C@H]1CCC[C@@H](n2cnnc2)C1)c1ccc(-c2noc(C3(O)CC3)n2)cc1C1CC1 [Compound 2Ke, 2-cyclopropyl-4-[5-(1-hydroxycyclopropyl)-1,2,4-oxadiazol-3-yl]-N-[(1S,3R)-3-(4H-1,2,4-triazol-4-yl)cyclohexyl]benzenesulfonamide] | 337
17 | 3-ethyl-5-imidazo[1,2-a]pyridin-8-yl-N-[(1S,3R)-3-(4H-1,2,4-triazol-4-yl)cyclohexyl]-5-(trifluoromethyl)benzenesulfonamide [Compound 3Bau] | 0.8

Row | Compound | IC50 [nM]
18 | O=S(=O)(N[C@H]1CCC[C@@H](n2cnnc2)C1)c1cc(-c2cc(Cl)cnc2F)cc(C(F)(F)F)c1 [Compound 3Aab, 3-(5-chloro-2-fluoropyridin-3-yl)-N-[(1S,3R)-3-(4H-1,2,4-triazol-4-yl)cyclohexyl]-5-(trifluoromethyl)benzenesulfonamide] | 4
19 | O=S(=O)(N[C@H]1CCC[C@@H](n2cnnc2)C1)c1cc(-c2cccnc2OCC(F)(F)F)cc(C(F)(F)F)c1 [Compound 3Aam, N-[(1S,3R)-3-(4H-1,2,4-triazol-4-yl)cyclohexyl]-3-[2-(2,2,2-trifluoroethoxy)pyridin-3-yl]-5-(trifluoromethyl)benzenesulfonamide] | 3.2
20 | CCc1cc(-c2ccc(F)nc2)ccc1S(=O)(=O)N[C@H]1CCC[C@@H](n2cnnc2)C1 [Compound 2Aam, 2-ethyl-4-(6-fluoropyridin-3-yl)-N-[(1S,3R)-3-(4H-1,2,4-triazol-4-yl)cyclohexyl]benzenesulfonamide] | 81
21 | CC(C)Oc1ccc(-c2ccc(S(=O)(=O)N[C@H]3CCC[C@@H](n4cnnc4)C3)cc2F)cc1 [Compound 2Ed, 2-fluoro-4′-isopropoxy-N-[(1S,3R)-3-(4H-1,2,4-triazol-4-yl)cyclohexyl]biphenyl-4-sulfonamide] | 15
22 | O=S(=O)(N[C@H]1CCC[C@@H](n2cnnc2)C1)c1cc(-c2cccnc2O)cc(C(F)(F)F)c1 [Compound 3Aj, 3-(2-hydroxypyridin-3-yl)-N-[(1S,3R)-3-(4H-1,2,4-triazol-4-yl)cyclohexyl]-5-(trifluoromethyl)benzenesulfonamide] | 12
23 | CCc1cc(-c2ccncc2)ccc1S(=O)(=O)N[C@H]1CCC[C@@H](n2cnnc2)C1 [Compound 2Ak, 2-ethyl-4-pyridin-4-yl-N-[(1S,3R)-3-(4H-1,2,4-triazol-4-yl)cyclohexyl]benzenesulfonamide] | 95
24 | O=S(=O)(N[C@H]1CCC[C@@H](n2cnnc2)C1)c1cccc(-c2ccccc2)c1 [Compound 2Mg, N-[(1S,3R)-3-(4H-1,2,4-triazol-4-yl)cyclohexyl]biphenyl-3-sulfonamide] | 30
25 | Cc1nncn1[C@H]1C[C@@H](NS(=O)(=O)c2ccc(-c3noc(C4CC4)n3)cc2C2CC2)CC(F)(F)C1 [Compound 2Lj, 2-cyclopropyl-4-(5-cyclopropyl-1,2,4-oxadiazol-3-yl)-N-[(1R,5S)-3,3-difluoro-5-(3-methyl-4H-1,2,4-triazol-4-yl)cyclohexyl]benzenesulfonamide] | 1.3
26 | CCc1cc(-c2cccnc2OC)ccc1S(=O)(=O)N[C@H]1CCC[C@@H](n2cnnc2)C1 [Compound 2Aq, 2-ethyl-4-(2-methoxypyridin-3-yl)-N-[(1S,3R)-3-(4H-1,2,4-triazol-4-yl)cyclohexyl]benzenesulfonamide] | 27
27 | Cc1nncn1[C@H]1C[C@@H](NS(=O)(=O)c2ccc(OCCCCF)cc2)CC(F)(F)C1 [Compound 2Qad, N-[(1R,5S)-3,3-difluoro-5-(3-methyl-4H-1,2,4-triazol-4-yl)cyclohexyl]-4-(4-fluorobutoxy)-benzenesulfonamide] | 8.8
28 | O=S(=O)(N[C@H]1CCC[C@@H](n2cnnc2)C1)c1cc(-c2cccc3ccc(OCC(F)(F)F)nc23)cc(C(F)(F)F)c1 [Compound 3Aad, N-[(1S,3R)-3-(4H-1,2,4-triazol-4-yl)cyclohexyl]-3-[2-(2,2,2-trifluoroethoxy)quinolin-8-yl]-5-(trifluoromethyl)benzenesulfonamide] | 4
29 | CCc1cc(-c2cnc(N)nc2)ccc1S(=O)(=O)N[C@H]1CCC[C@@H](n2cnnc2)C1 [Compound 2Aj, 4-(2-aminopyrimidin-5-yl)-2-ethyl-N-[(1S,3R)-3-(4H-1,2,4-triazol-4-yl)cyclohexyl]benzenesulfonamide] | 1060
30 | O=S(=O)(N[C@H]1CCC[C@@H](n2cnnc2)C1)c1cc(-c2cccc(F)c2)cc(C(F)(F)F)c1 [Compound 3As, 3′-fluoro-N-[(1S,3R)-3-(4H-1,2,4-triazol-4-yl)cyclohexyl]-5-(trifluoromethyl)biphenyl-3-sulfonamide] | 3.9
31 | O=S(=O)(N[C@@H]1C[C@H](n2cnnc2)CC(F)(F)C1)c1cc(-c2cccc3cccnc23)cc(C(F)(F)F)c1 [Compound 3Cd, N-[(1R,5S)-3,3-difluoro-5-(4H-1,2,4-triazol-4-yl)cyclohexyl]-3-quinolin-8-yl-5-(trifluoromethyl)benzenesulfonamide] | 4.8
32 | Cc1nncn1[C@@H]1CCC[C@H](NS(=O)(=O)c2ccc(-n3ccc(C4CC4)n3)cc2)C1 [Compound 2Ns, 4-(3-cyclopropyl-1H-pyrazol-1-yl)-N-[(1S,3R)-3-(3-methyl-4H-1,2,4-triazol-4-yl)cyclohexyl]benzenesulfonamide] | 30
33 | CCc1cc(-c2ccc(OC)c(F)c2)ccc1S(=O)(=O)N[C@H]1CCC[C@@H](n2cnnc2)C1 [Compound 2At, 3-ethyl-3′-fluoro-4′-methoxy-N-[(1S,3R)-3-(4H-1,2,4-triazol-4-yl)cyclohexyl]biphenyl-4-sulfonamide] | 39
